Assay [1] has as its system PBMCs from healthy volunteers. The assay can be described thus: IL-28A, IL-28B and IL-29 mRNA expression in H1N1-stimulated PBMCs. The assay is classed as cell-based, human. As to conditions: MMF various concentrations 2 h before 6 h H1N1; n = 25. The protocol: (A) PBMCs from healthy volunteers were stimulated for six-hours with H1N1. mRNA-expression of IL-28A, IL-28B and IL-29 were normalized to non-stimulated controls and HPRT expression. Major (rs8099917 TT, n = 28) compared to minor (rs8099917 non-TT, n = 21) allele genotype. MWU-test determined statistically significant differences between groups. Bars show median values with interquartile range. (B) PBMCs from healthy volunteers (n = 25) were pre-treated with mycophenolate mofetil for 2 h prior to stimulated for six-hours with H1N1. mRNA-expression of IL-28A, IL-28B and IL-29 and statistical analysis were performed using the Kruskal Wallis (KW) test.
IL-28B primers and probe were designed based on Homo sapiens IL-28B mRNA-sequence (NM_172139.2) using Primer3 Input (version 0.4.0) (http://frodo.wi.mit.edu/). The forward primer (IL-28BF1: […]) spans the exon/exon junction of exons 1 and 2 of IL-28B. The IL-28B-specific probe (IL-28B probe: […] ) is located in the second exon and the reverse primer (IL-28BR1: […]) is in the third exon of the IL-28B gene. […]
The specificity of the three sets of qRT PCR assays was tested against Invivogen expression plasmids containing complete IL-28A (puno1-hIL-28A), IL-28B (puno1-hIL-28B) and IL-29 (punoIL-29) sequences. The specificity of all qRT PCR assays has been previously assessed. […]

The next assay deals with transplant recipients. As to conditions: MMF; ref [28], [48]; cited from earlier work.
The subject of assay [2] is IL28RA (IL-28 receptor alpha subunit). Nature of the assay: ELISA competition assay, binding of IL-28B to IL28RA. As to conditions: for inhibition of IFN-λ / IL-28B binding to IL28RA (in words): peptides 10 µM, or increasing 10 nM to 100 µM; for binding affinity to IL28RA (in words): discussion.
Description: Recombinant IL28RA was coated on an ELISA plate and pre-treated with increasing concentrations of peptides. […] Anti-his secondary antibody was used to determine the relative amount of bound IFN-λ to the IL28RA. These dose-response curves allowed us to determine the effectiveness of binding inhibition of each peptide.
(C) Inhibitory activity of peptides against IL-28B to IL28RA. […] Bars indicate median values, whiskers inter-quartile ranges. The graph represents three independently repeated experiments. (D) Inhibitory activity of scrambled peptides against IL-28B to IL28RA. ELISA was used to measure the binding of a fixed concentration of IL-28B (100 ng/mL) to the IL28RA challenged by a fixed concentration of control peptides (10 µM; s, scramble). The median value representing three independently repeated experiments is shown. Whiskers indicate the interquartile range.
The subject of assay [3] is PBMCs from healthy volunteers. The assay is classed as cell-based, human. The following applies: peptides 2 h prior to 5-day H1N1 stimulation, compared to peptide controls.
Assay [4] has as its system T-cells, monocytes and macrophages. The following applies: ref [18]–[21]; cited from earlier work. The text has this:
The IFN-λ family (Interleukin-28A, -28B, -29, and IFN-λ4) is a recently described class of IFNs with antiviral properties similar to IFN-α and -β [14]–[17]. IFN-λ is known to induce phosphorylation of STAT-1 and -2 via binding to its receptor, which is a heterodimer consisting of the IL-28 receptor alpha subunit (IL28RA) and IL-10 receptor beta subunit (IL10RB). […] Furthermore, IFN-λs induced the development of T-regu ... || IL-28B (IFN-λ3) belongs to the family of IFN-lambdas and shares antiviral properties similar to IFN-α via induction of interferon stimulated genes (ISGs) such as MX1 or OAS1 [41]. […] IL-12 is a key cytokine for the induction of Th1 cells and cytotoxic lymphocytes, [43]. SNPs in the IL-28B gene (minor-allele genotypes) have been associated with reduced IL-28B expression, [29]–[33], which could impact adaptive immune functions during vaccination. One limitation of our study is that we d ...

The test system of a further assay is IL28RA. As to conditions: reference not given; cited from earlier work. From the text:
An important strength of our study is the use of a clinical cohort including immunosuppressed transplant recipients to confirm our findings in the clinical setting. We then sought to define additional observations to support our clinical findings making our study unique. One limitation of our study is the heterogeneity of the transplant cohort due to a variety of underlying conditions leading to organ failure. […] In addition, we have shown that mycophenolate mofetil (MMF) and the IL-28B major-allele ...

Another assay has as its system H1N1 stimulated PBMCs. The assay is classed as cell-based, human. The following applies: control peptides added twice during expansion phase.
Setting [5] is: competition ELISA, IL-28B 100 ng/mL.

“Also recorded” adds a separate entry of the source. Read-outs that look alike come from different tables or passages of the source.

For the molecule `COc1c(C)c2c(c(O)c1C/C=C(\C)CCC(=O)OCCN1CCOCC1)C(=O)OC2` [MMF, mycophenolate mofetil], the “IFN-λ (IL-28A, IL-28B, IL-29) mRNA expression profiles” value in assay [1] is reported as “no difference in IFN-λ expression profiles; also recorded: not influenced”. For the same molecule, the “effect on influenza vaccine responses” value with transplant recipients is given as “significantly suppress influenza vaccine responses”.

Consider ASVTFNLFRLLTRDLKY [peptide 6], for which, in assay [2] (setting [5]), the “inhibition of IFN-λ / IL-28B binding to IL28RA (in words)” value is “strong potential to inhibit binding of IFN-λs”. In addition, in assay [2], the “binding affinity to IL28RA (in words)” value is listed as “high binding affinities to IL28RA”. Besides, the “H1N1-induced IgG production (in words)” value in assay [3] was “ability to significantly increase in vitro H1N1-induced IgG production”.

Consider ELASFKKARDALEESLKL [peptide 1], for which the “reduction of the binding of IL-28B to IL28RA” value in assay [2] (competition ELISA, IL-28B 100 ng/mL, peptide 10 µM (S5C/S5D Figure), median of three independent experiments) stood at 71%. Further, the “inhibition of IFN-λ / IL-28B binding to IL28RA (in words)” value in assay [2] (setting [5]) is on record as “potent specific dose dependent inhibitory blocking effect”; in assay [2] (competition ELISA, IL-28B 100 ng/mL, listed as peptides 1), “strong potential to inhibit binding of IFN-λs”. Also, the “binding affinity to IL28RA (in words)” value in assay [2] is given as “high binding affinities to IL28RA”. The entries for the “H1N1-induced IgG production (in words)” value in assay [3] (listed as Peptides 1) and in assay [3] (listed as peptides 1) were “strong trend for higher H1N1-induced IgG secretion” and “ability to significantly increase in vitro H1N1-induced IgG production”, respectively.

Turning to IL-29: one of the IFN-λ family members, in assay [4], the “Th1 and Th2 cytokine producing T-cells” value is “increase Th1 and suppress Th2 cytokine producing T-cells”. Further, in the assay with IL28RA, the “binding affinity towards IL28RA compared to IL-28B” value was “significantly greater binding affinity”.

For penetratin, the “unspecific stimulatory effect on H1N1 stimulated IgG production” value with H1N1 stimulated PBMCs is “No unspecific effect could be observed”.

The values are drawn from PMC4263767, “IL-28B is a Key Regulator of B- and T-Cell Vaccine Responses against Influenza” (PLoS Pathogens, 2014).
